The source of these data is PMC4854315, “Discovery of a novel allosteric inhibitor-binding site in ERK5: comparison with the canonical kinase hinge ATP-binding site” (Acta Crystallographica. Section D, Structural Biology, 2016).

Common to all, as to assay: Z'-LYTE kinase panel
Format in all cases: biochemical

The target of one experiment is T1, CSK (Homo sapiens, UniProt P41240).
T1 construct: purchased ThermoFisher (SelectScreen, Z'-LYTE)
A digest of the protocol:
(§1)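 The 225-kinase standard panel was run using the Z′-LYTE protocol, and inhibition was expressed as a percentage relative to uninhibited activity at 10 µM compound.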

The target of a further experiment is T2, DYRK3 (Homo sapiens, UniProt O43781).
T2 construct: purchased ThermoFisher (SelectScreen, Z'-LYTE)
T2 sequence (O43781 1-588): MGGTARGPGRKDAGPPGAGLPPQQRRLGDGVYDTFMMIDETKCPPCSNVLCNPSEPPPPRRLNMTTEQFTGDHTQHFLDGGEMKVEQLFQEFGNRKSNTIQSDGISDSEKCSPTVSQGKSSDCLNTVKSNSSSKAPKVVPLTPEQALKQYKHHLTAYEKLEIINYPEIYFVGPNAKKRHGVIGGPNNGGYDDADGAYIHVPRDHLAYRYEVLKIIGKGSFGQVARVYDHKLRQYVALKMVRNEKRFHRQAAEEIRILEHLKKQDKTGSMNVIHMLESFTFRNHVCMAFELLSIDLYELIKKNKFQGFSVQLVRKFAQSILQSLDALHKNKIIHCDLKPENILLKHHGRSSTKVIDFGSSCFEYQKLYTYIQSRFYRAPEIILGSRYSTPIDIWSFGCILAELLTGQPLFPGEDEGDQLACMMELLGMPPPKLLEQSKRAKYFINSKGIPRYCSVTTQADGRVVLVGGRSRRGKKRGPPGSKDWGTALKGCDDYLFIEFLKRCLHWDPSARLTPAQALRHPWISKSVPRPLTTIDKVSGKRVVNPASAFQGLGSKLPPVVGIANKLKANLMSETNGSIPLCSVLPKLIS
In outline: as §1

For a further experiment, the target named is T3, EPHB1 (Homo sapiens, UniProt P54762).
T3 construct: purchased ThermoFisher (SelectScreen, Z'-LYTE)
T3 sequence (P54762 18-984): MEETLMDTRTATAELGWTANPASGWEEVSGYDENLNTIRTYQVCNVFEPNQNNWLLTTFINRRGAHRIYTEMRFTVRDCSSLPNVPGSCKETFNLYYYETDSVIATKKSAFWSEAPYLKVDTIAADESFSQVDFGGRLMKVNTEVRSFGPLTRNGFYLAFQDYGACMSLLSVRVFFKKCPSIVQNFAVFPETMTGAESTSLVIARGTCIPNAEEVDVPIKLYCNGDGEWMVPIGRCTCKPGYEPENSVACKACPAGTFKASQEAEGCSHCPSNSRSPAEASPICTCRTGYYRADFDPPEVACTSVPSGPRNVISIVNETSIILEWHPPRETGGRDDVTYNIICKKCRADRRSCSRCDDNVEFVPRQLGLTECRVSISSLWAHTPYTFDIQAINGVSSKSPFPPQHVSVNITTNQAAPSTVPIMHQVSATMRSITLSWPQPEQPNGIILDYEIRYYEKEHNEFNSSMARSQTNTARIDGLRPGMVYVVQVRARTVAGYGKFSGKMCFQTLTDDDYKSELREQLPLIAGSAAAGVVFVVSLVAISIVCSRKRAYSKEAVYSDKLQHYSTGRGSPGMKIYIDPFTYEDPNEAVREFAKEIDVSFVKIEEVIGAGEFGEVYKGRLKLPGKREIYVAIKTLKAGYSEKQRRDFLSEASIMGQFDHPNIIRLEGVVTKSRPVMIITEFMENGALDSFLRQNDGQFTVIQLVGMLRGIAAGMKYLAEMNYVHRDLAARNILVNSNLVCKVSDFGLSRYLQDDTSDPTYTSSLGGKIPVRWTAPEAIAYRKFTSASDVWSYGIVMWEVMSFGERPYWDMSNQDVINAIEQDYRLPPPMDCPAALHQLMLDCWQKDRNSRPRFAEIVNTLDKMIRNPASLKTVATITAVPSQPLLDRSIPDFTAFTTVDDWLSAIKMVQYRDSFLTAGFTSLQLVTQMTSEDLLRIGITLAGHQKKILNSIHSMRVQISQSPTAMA
In outline:
as §1

A further experiment has as its target T4, ERBB4 (HER4) (Homo sapiens, UniProt Q15303).
T4 construct: purchased ThermoFisher (SelectScreen, Z'-LYTE)
In outline:
as §1

The target in another experiment is T5, FGFR2 (Homo sapiens, UniProt P21802).
T5 construct: purchased ThermoFisher (SelectScreen, Z'-LYTE)
A digest of the protocol:
as §1

A further experiment concerns the target T6, MAP4K4 (HGK) (Homo sapiens, UniProt O95819).
T6 construct: purchased ThermoFisher (SelectScreen, Z'-LYTE)
A digest of the protocol:
as §1

Another experiment has as its target T7, PAK1 (Homo sapiens, UniProt Q13153).
T7 construct: purchased ThermoFisher (SelectScreen, Z'-LYTE)
In outline: as §1

For a further experiment, the target named is T8, ROCK1 (Homo sapiens, UniProt Q13464).
T8 construct: purchased ThermoFisher (SelectScreen, Z'-LYTE)
In outline:
as §1

In another experiment the target is T9, SGKL (SGK3) (Homo sapiens, UniProt Q96BR1).
T9 construct: purchased ThermoFisher (SelectScreen, Z'-LYTE)
T9 sequence (Q96BR1 1-496): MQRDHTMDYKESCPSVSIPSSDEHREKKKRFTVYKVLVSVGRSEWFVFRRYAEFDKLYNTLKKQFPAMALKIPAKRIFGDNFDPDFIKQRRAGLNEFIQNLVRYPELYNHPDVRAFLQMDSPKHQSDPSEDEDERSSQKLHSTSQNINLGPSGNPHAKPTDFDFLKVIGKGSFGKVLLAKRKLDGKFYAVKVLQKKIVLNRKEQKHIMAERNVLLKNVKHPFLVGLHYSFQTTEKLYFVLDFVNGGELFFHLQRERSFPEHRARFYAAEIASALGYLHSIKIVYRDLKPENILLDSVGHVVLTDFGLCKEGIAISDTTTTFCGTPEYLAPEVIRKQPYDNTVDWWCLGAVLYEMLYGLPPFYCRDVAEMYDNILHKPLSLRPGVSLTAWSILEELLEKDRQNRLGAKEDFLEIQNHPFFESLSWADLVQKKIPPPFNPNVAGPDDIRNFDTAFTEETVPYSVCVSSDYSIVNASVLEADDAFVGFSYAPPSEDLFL
In outline: as §1

For a further experiment, the target named is T10, SRPK1 (Homo sapiens, UniProt Q96SB4).
T10 construct: purchased ThermoFisher (SelectScreen, Z'-LYTE)
In outline: as §1

T7 sequence (Q13153 whole entry): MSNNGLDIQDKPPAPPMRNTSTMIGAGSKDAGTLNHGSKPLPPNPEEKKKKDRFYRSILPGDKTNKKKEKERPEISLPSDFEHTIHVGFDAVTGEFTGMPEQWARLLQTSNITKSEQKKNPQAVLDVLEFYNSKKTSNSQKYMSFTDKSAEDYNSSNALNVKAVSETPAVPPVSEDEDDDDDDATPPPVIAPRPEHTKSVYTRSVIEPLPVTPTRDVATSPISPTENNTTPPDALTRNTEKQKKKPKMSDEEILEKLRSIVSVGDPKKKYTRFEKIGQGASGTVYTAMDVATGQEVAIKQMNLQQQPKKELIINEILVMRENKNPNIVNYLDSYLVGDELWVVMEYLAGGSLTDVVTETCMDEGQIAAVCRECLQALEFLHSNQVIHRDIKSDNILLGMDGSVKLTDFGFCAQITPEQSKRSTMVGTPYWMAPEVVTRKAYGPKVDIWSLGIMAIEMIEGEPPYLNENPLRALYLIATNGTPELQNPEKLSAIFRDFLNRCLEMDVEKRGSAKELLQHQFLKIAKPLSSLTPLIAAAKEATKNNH
T10 sequence (Q96SB4 whole entry): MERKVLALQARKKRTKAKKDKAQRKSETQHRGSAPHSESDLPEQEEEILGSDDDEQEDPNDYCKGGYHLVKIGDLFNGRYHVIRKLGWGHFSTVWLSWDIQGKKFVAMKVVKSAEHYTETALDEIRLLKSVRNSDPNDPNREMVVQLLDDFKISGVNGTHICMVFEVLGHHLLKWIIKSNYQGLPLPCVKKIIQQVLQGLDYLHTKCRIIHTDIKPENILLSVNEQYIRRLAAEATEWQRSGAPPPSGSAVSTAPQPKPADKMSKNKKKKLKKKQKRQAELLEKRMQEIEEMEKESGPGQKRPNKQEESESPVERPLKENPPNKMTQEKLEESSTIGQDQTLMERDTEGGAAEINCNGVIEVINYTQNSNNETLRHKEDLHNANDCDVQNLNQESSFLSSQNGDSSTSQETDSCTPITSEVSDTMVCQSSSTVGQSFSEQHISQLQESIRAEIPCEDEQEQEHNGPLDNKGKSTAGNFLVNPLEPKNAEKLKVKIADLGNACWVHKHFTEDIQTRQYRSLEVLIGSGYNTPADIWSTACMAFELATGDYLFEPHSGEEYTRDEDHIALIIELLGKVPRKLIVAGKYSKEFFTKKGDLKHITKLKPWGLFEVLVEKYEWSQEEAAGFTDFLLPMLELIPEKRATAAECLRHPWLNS
T6 sequence (O95819 whole entry): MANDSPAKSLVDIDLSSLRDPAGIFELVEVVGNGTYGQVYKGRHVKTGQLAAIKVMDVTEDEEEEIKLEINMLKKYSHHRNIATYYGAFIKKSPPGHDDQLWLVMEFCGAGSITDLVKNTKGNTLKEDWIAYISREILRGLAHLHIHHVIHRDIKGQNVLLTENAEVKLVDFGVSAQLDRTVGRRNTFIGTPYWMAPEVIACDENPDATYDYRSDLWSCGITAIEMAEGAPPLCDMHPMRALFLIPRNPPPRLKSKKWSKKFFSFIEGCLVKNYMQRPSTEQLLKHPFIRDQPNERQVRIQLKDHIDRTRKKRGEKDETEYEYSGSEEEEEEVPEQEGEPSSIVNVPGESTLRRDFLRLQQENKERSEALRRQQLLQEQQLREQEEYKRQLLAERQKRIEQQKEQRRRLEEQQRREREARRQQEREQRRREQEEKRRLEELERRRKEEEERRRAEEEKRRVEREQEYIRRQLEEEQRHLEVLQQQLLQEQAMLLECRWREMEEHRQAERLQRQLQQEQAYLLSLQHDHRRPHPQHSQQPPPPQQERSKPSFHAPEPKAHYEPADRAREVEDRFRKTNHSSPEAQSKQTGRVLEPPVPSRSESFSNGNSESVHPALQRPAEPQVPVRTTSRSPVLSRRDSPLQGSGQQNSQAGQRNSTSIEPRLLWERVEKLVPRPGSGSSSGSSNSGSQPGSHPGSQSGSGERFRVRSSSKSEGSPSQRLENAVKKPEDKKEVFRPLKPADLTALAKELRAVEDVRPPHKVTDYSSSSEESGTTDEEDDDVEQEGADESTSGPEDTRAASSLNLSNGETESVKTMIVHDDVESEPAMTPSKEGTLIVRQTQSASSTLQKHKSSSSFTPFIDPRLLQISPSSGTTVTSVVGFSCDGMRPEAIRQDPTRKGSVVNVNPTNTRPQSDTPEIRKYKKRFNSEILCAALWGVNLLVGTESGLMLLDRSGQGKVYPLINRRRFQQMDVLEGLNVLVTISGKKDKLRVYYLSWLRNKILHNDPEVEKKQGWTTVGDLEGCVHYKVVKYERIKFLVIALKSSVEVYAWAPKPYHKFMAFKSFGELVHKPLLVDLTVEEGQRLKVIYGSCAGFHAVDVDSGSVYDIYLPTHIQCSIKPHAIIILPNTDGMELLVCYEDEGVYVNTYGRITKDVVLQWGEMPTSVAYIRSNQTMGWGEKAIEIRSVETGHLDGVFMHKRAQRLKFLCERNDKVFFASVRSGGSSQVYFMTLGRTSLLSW
T4 sequence (Q15303 26-1308): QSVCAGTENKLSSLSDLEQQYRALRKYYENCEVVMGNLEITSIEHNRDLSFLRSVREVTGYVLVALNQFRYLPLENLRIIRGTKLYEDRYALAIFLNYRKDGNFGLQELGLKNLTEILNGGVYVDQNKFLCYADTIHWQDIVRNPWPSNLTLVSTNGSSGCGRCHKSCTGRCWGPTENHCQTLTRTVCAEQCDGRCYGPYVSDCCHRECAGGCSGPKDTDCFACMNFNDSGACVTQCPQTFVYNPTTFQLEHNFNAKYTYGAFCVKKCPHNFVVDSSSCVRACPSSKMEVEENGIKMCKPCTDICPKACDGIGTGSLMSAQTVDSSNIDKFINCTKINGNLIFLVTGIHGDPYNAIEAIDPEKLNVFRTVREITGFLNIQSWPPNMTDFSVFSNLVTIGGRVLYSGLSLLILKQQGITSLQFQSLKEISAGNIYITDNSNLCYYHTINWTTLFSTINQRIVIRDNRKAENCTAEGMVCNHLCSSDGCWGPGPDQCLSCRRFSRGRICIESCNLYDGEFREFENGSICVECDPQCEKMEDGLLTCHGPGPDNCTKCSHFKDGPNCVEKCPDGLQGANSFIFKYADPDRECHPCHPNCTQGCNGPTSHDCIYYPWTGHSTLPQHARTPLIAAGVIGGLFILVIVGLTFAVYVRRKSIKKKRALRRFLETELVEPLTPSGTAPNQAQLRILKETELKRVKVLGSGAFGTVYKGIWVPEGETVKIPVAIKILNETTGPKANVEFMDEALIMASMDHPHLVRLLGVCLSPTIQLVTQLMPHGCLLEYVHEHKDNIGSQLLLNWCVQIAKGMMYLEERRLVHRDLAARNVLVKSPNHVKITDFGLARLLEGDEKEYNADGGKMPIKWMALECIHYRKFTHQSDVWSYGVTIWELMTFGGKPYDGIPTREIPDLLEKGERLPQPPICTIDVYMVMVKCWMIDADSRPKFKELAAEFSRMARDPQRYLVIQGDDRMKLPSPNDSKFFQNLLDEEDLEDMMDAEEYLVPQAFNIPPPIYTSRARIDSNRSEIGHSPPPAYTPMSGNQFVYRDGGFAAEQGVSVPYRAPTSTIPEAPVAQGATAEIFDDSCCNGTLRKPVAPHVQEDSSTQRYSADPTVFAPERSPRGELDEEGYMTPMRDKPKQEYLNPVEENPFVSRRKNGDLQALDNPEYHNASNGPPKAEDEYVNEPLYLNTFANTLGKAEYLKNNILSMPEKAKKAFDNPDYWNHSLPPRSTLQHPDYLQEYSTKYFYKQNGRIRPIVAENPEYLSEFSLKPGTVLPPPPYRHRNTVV
T1 sequence (P41240 whole entry): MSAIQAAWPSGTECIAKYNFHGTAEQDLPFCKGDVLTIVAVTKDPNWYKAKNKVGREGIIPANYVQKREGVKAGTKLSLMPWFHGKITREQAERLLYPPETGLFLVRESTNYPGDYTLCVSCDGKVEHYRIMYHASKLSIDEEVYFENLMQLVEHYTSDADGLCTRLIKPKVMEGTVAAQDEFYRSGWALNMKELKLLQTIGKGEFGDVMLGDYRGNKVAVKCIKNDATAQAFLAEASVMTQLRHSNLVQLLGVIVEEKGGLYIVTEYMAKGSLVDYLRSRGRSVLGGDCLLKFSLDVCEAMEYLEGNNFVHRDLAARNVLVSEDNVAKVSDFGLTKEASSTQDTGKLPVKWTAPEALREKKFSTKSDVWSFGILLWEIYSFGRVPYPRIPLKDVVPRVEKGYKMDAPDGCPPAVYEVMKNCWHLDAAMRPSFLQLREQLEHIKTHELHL
T5 sequence (P21802 22-821): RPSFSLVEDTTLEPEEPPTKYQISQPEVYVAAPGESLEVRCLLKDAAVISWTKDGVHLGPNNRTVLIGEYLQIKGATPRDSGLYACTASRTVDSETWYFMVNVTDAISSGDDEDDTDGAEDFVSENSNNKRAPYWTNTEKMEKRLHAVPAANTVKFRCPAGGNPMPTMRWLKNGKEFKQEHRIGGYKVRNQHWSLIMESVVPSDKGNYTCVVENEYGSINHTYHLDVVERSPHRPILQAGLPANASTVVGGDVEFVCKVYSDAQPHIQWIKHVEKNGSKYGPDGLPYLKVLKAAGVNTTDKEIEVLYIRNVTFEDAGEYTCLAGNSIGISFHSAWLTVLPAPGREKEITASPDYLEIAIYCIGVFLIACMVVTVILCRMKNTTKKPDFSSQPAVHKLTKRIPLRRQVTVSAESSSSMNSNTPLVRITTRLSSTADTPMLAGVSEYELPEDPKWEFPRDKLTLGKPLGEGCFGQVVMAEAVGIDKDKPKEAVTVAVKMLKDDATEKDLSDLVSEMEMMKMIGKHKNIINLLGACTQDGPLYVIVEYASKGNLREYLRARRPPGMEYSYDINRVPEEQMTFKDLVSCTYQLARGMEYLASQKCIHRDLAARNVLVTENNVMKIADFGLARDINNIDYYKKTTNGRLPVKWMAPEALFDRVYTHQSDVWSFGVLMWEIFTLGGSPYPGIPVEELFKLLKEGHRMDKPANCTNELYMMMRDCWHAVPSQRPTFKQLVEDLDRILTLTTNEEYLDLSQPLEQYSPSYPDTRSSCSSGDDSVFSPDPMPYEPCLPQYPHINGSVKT

As a reminder, the inhibition is the drop in the measured response relative to a control, in per cent. On to `Cc1ncc(-c2nc(Nc3ccc(C(=O)NCCN4CCCCC4)cc3)ncc2F)n1C(C)C` [Compound 3], for which the inhibition at 10 µM against CSK is 29%; against DYRK3, 93%; on EPHB1, 94%; against ERBB4 (HER4), 17%; on FGFR2, 88%; on MAP4K4 (HGK) it was 84%. The inhibition at 10 µM against PAK1 was found to be 51%; on ROCK1, 27%; at SGKL (SGK3), 67%; at SRPK1, 24%.

On to `Cc1cc(Nc2nc(N)nn2C(=O)NC(C)C)ccc1Cl` [Compound 5], for which the inhibition at 10 µM against CSK was 16%; against DYRK3 it was 0.141%; at EPHB1, 7.51%; against ERBB4 (HER4) it was 7%; at FGFR2, 53%; against MAP4K4 (HGK), -6%. Further, the inhibition at 10 µM at PAK1 is -12%; on ROCK1 it was 37%; against SGKL (SGK3), -11%; on SRPK1, 2%.

Regarding “XMD8-92 [Compound 2, reference compound]”, the “CSK % Inhibition” value at CSK (10 µM compound, ATP Km app) is recorded as 11%. Moreover, the “DYRK3 % Inhibition” value at DYRK3 (10 µM compound, ATP Km app) was 31%. Moreover, the “EPHB1 % Inhibition” value at EPHB1 (10 µM compound, ATP Km app) came to 5.39%. Also, on ERBB4 (HER4) (10 µM compound, ATP Km app), the “ERBB4 (HER4) % Inhibition” value came to 16%. For the same compound, the “FGFR2 % Inhibition” value on FGFR2 (10 µM compound, ATP Km app) stood at 33%. Moreover, the “MAP4K4 (HGK) % Inhibition” value on MAP4K4 (HGK) (10 µM compound, ATP Km app) was 84%. Moreover, the “PAK1 % Inhibition” value at PAK1 (10 µM compound, ATP Km app) is recorded as 8%. Besides, the “ROCK1 % Inhibition” value at ROCK1 (10 µM compound, ATP Km app) was 16%. Also, on SGKL (SGK3) (10 µM compound, ATP Km app), the “SGKL (SGK3) % Inhibition” value came out at 96%. The “SRPK1 % Inhibition” value at SRPK1 (10 µM compound, ATP Km app) is -3%.
